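Exposure lasted 48 hours, with cells grown in 96-well plates and compounds tested at five concentrations. The concentration for 50% growth inhibition is given as GI50. TGI denotes the concentration required for complete inhibition of growth.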

For one assay, the system named is UACC-257 melanoma. In words: NCI anticancer screen, dose series, 48 h.
`Cc1ccc(C(=O)Cc2nc3c([nH]c2=O)c(C)nn3-c2ccccc2)c(C)c1`: the TGI is more than 10 µM.

Consider `CCCCN1C(=O)CC2[C@@H]3CCc4cc(OC)ccc4C3CC[C@]2(C)C1=O` (some centres undefined), for which the TGI is more than 10 µM.

Consider `COc1cc(/C=C2\CN(C)CC3=C2Nc2nc(SC)[nH]c(=O)c2C3c2cc(OC)c(OC)c(OC)c2)cc(OC)c1OC` (centres undefined), for which the GI50 was 2.24 µM and the TGI turned out to be 7.63 µM.

In turn, `Cc1nc(SCC(N)=O)c2sc(=S)n(-c3ccccc3)c2n1` registered a TGI of more than 10 µM.

`O=C(CC(C(=O)c1cccs1)c1ccc2c(c1)OCO2)c1ccc(Br)cc1` (centres undefined) had a TGI of more than 100 µM.

`Cc1cc(N(CCNc2ccnc3cc(Cl)ccc23)Cc2ccc3c(c2)OCO3)nc(N2CCN(C)CC2)n1`: the GI50 is 2.01 µM and the TGI was 3.79 µM.

For a further assay, the system named is UO-31 renal. In words: NCI anticancer screen, dose series, 48 h.
For `COc1cc(-c2csc(NC(=O)c3cc(C(F)(F)F)cc(C(F)(F)F)c3)n2)cc(OC)c1OC`, the GI50 was 2.57 µM and the TGI is more than 100 µM.

Take `Clc1ccccc1NN(Cc1ccccn1)c1ccccc1Cl`: the TGI was found to be 34.8 µM.

In the case of `CCCCN1C(=O)CC2[C@@H]3CCc4cc(OC)ccc4C3CC[C@]2(C)C1=O` (some centres undefined), the TGI is more than 10 µM.

For the compound `COc1cc(/C=C2\CN(C)CC3=C2Nc2nc(SC)[nH]c(=O)c2C3c2cc(OC)c(OC)c(OC)c2)cc(OC)c1OC` (centres undefined), the GI50 was 1.57 µM and the TGI was determined as 3.44 µM.

In turn, `O=C(CC(C(=O)c1cccs1)c1ccc2c(c1)OCO2)c1ccc(Br)cc1` (centres undefined) gave a TGI of more than 100 µM.

`Cc1cc(N(CCNc2ccnc3cc(Cl)ccc23)Cc2ccc3c(c2)OCO3)nc(N2CCN(C)CC2)n1`: the GI50 is 1.43 µM and the TGI was found to be 2.85 µM.

For another assay, the system named is NCI-H522 lung. As to the kind of experiment: NCI anticancer screen, dose series, 48 h.
As for `COc1cc(-c2csc(NC(=O)c3cc(C(F)(F)F)cc(C(F)(F)F)c3)n2)cc(OC)c1OC`, the GI50 was 1.4 µM and the TGI turned out to be 5.05 µM.

As for `Cc1ccc(C(=O)Cc2nc3c([nH]c2=O)c(C)nn3-c2ccccc2)c(C)c1`, the TGI is more than 10 µM.

As for `Clc1ccccc1NN(Cc1ccccn1)c1ccccc1Cl`, the TGI is 41.1 µM.

For `COc1cc(/C=C2\CN(C)CC3=C2Nc2nc(SC)[nH]c(=O)c2C3c2cc(OC)c(OC)c(OC)c2)cc(OC)c1OC` (centres undefined), the GI50 was 2.04 µM and the TGI was found to be 4.69 µM.

The compound `Cc1nc(SCC(N)=O)c2sc(=S)n(-c3ccccc3)c2n1` came in with a TGI of more than 10 µM.

Turning to `Cc1cc(N(CCNc2ccnc3cc(Cl)ccc23)Cc2ccc3c(c2)OCO3)nc(N2CCN(C)CC2)n1`, the GI50 is 1.85 µM and the TGI amounted to 3.81 µM.

The next assay relates to K-562 leukemia. As to the kind of experiment: NCI anticancer screen, dose series, 48 h.
Regarding `COc1cc(-c2csc(NC(=O)c3cc(C(F)(F)F)cc(C(F)(F)F)c3)n2)cc(OC)c1OC`, the GI50 was 2.75 µM and the TGI is more than 100 µM.

Compound `Cc1ccc(C(=O)Cc2nc3c([nH]c2=O)c(C)nn3-c2ccccc2)c(C)c1` displayed a TGI of more than 10 µM.

On to `Clc1ccccc1NN(Cc1ccccn1)c1ccccc1Cl`, for which the TGI was determined as 68.7 µM.

The compound `CCCCN1C(=O)CC2[C@@H]3CCc4cc(OC)ccc4C3CC[C@]2(C)C1=O` (some centres undefined) registered a TGI of more than 10 µM.

In the case of `Cc1nc(SCC(N)=O)c2sc(=S)n(-c3ccccc3)c2n1`, the TGI is more than 10 µM.

Compound `O=C(CC(C(=O)c1cccs1)c1ccc2c(c1)OCO2)c1ccc(Br)cc1` (centres undefined) came in with a TGI of more than 100 µM.

`Cc1cc(N(CCNc2ccnc3cc(Cl)ccc23)Cc2ccc3c(c2)OCO3)nc(N2CCN(C)CC2)n1`: the GI50 is 1.16 µM and the TGI turned out to be 3.93 µM.

Another assay has as its system SN12C renal. As to the kind of experiment: NCI anticancer screen, dose series, 48 h.
Consider `COc1cc(-c2csc(NC(=O)c3cc(C(F)(F)F)cc(C(F)(F)F)c3)n2)cc(OC)c1OC`, for which the GI50 is 2.78 µM and the TGI is more than 100 µM.

Regarding `Cc1ccc(C(=O)Cc2nc3c([nH]c2=O)c(C)nn3-c2ccccc2)c(C)c1`, the TGI is more than 10 µM.

Consider `Clc1ccccc1NN(Cc1ccccn1)c1ccccc1Cl`, for which the TGI is 33.3 µM.

Consider `CCCCN1C(=O)CC2[C@@H]3CCc4cc(OC)ccc4C3CC[C@]2(C)C1=O` (some centres undefined), for which the TGI is more than 10 µM.

Turning to `COc1cc(/C=C2\CN(C)CC3=C2Nc2nc(SC)[nH]c(=O)c2C3c2cc(OC)c(OC)c(OC)c2)cc(OC)c1OC` (centres undefined), the GI50 was 2.98 µM and the TGI is 15.5 µM.

In the case of `Cc1nc(SCC(N)=O)c2sc(=S)n(-c3ccccc3)c2n1`, the TGI is more than 10 µM.

`O=C(CC(C(=O)c1cccs1)c1ccc2c(c1)OCO2)c1ccc(Br)cc1` (centres undefined) had a TGI of more than 100 µM.

`Cc1cc(N(CCNc2ccnc3cc(Cl)ccc23)Cc2ccc3c(c2)OCO3)nc(N2CCN(C)CC2)n1`: the GI50 is 3.77 µM and the TGI was 14.2 µM.

For the next assay, the system named is SR leukemia. As to the kind of experiment: NCI anticancer screen, dose series, 48 h.
Regarding `COc1cc(-c2csc(NC(=O)c3cc(C(F)(F)F)cc(C(F)(F)F)c3)n2)cc(OC)c1OC`, the GI50 is 2.67 µM and the TGI turned out to be 11.6 µM.

Regarding `Cc1ccc(C(=O)Cc2nc3c([nH]c2=O)c(C)nn3-c2ccccc2)c(C)c1`, the TGI is more than 10 µM.

In the case of `Clc1ccccc1NN(Cc1ccccn1)c1ccccc1Cl`, the TGI turned out to be 34.1 µM.

For the compound `CCCCN1C(=O)CC2[C@@H]3CCc4cc(OC)ccc4C3CC[C@]2(C)C1=O` (some centres undefined), the TGI was more than 10 µM.

`COc1cc(/C=C2\CN(C)CC3=C2Nc2nc(SC)[nH]c(=O)c2C3c2cc(OC)c(OC)c(OC)c2)cc(OC)c1OC` (centres undefined): the GI50 was 1.48 µM and the TGI is more than 100 µM.

Turning to `Cc1nc(SCC(N)=O)c2sc(=S)n(-c3ccccc3)c2n1`, the TGI is more than 10 µM.

In turn, `O=C(CC(C(=O)c1cccs1)c1ccc2c(c1)OCO2)c1ccc(Br)cc1` (centres undefined) gave a TGI of more than 100 µM.

`Cc1cc(N(CCNc2ccnc3cc(Cl)ccc23)Cc2ccc3c(c2)OCO3)nc(N2CCN(C)CC2)n1`: the GI50 was 1.5 µM and the TGI was determined as 4.43 µM.

The next assay relates to CAKI-1 renal. As to the kind of experiment: NCI anticancer screen, dose series, 48 h.
Regarding `COc1cc(-c2csc(NC(=O)c3cc(C(F)(F)F)cc(C(F)(F)F)c3)n2)cc(OC)c1OC`, the GI50 was 2.63 µM and the TGI is more than 100 µM.

`Cc1ccc(C(=O)Cc2nc3c([nH]c2=O)c(C)nn3-c2ccccc2)c(C)c1`: the TGI is more than 10 µM.

`Clc1ccccc1NN(Cc1ccccn1)c1ccccc1Cl` returned a TGI of 91.9 µM.

On to `CCCCN1C(=O)CC2[C@@H]3CCc4cc(OC)ccc4C3CC[C@]2(C)C1=O` (some centres undefined), for which the TGI was more than 10 µM.

Take `COc1cc(/C=C2\CN(C)CC3=C2Nc2nc(SC)[nH]c(=O)c2C3c2cc(OC)c(OC)c(OC)c2)cc(OC)c1OC` (centres undefined): the GI50 is 2.15 µM and the TGI was 4.71 µM.

Take `Cc1nc(SCC(N)=O)c2sc(=S)n(-c3ccccc3)c2n1`: the TGI was more than 10 µM.

`O=C(CC(C(=O)c1cccs1)c1ccc2c(c1)OCO2)c1ccc(Br)cc1` (centres undefined) had a TGI of more than 100 µM.

Another assay deals with PC-3 prostate. As to the kind of experiment: NCI anticancer screen, dose series, 48 h.
`COc1cc(-c2csc(NC(=O)c3cc(C(F)(F)F)cc(C(F)(F)F)c3)n2)cc(OC)c1OC`: the GI50 was 1.73 µM and the TGI turned out to be 7.35 µM.

The compound `Cc1ccc(C(=O)Cc2nc3c([nH]c2=O)c(C)nn3-c2ccccc2)c(C)c1` gave a TGI of more than 10 µM.

Compound `Clc1ccccc1NN(Cc1ccccn1)c1ccccc1Cl` returned a TGI of more than 100 µM.

On to `CCCCN1C(=O)CC2[C@@H]3CCc4cc(OC)ccc4C3CC[C@]2(C)C1=O` (some centres undefined), for which the TGI was more than 10 µM.

As to `COc1cc(/C=C2\CN(C)CC3=C2Nc2nc(SC)[nH]c(=O)c2C3c2cc(OC)c(OC)c(OC)c2)cc(OC)c1OC` (centres undefined), the GI50 is 3.63 µM and the TGI was determined as 32.4 µM.

On to `Cc1nc(SCC(N)=O)c2sc(=S)n(-c3ccccc3)c2n1`, for which the TGI was more than 10 µM.

Turning to `O=C(CC(C(=O)c1cccs1)c1ccc2c(c1)OCO2)c1ccc(Br)cc1` (centres undefined), the TGI is more than 100 µM.

Take `Cc1cc(N(CCNc2ccnc3cc(Cl)ccc23)Cc2ccc3c(c2)OCO3)nc(N2CCN(C)CC2)n1`: the GI50 is 4.59 µM and the TGI was found to be 17.7 µM.

The subject of the next assay is SNB-75 CNS. As to the kind of experiment: NCI anticancer screen, dose series, 48 h.
Take `COc1cc(-c2csc(NC(=O)c3cc(C(F)(F)F)cc(C(F)(F)F)c3)n2)cc(OC)c1OC`: the GI50 is 2.83 µM and the TGI is more than 100 µM.

On to `Cc1ccc(C(=O)Cc2nc3c([nH]c2=O)c(C)nn3-c2ccccc2)c(C)c1`, for which the TGI is 3.46 µM.

`Clc1ccccc1NN(Cc1ccccn1)c1ccccc1Cl` came in with a TGI of 41.7 µM.

With `CCCCN1C(=O)CC2[C@@H]3CCc4cc(OC)ccc4C3CC[C@]2(C)C1=O` (some centres undefined), the TGI was more than 10 µM.

Regarding `COc1cc(/C=C2\CN(C)CC3=C2Nc2nc(SC)[nH]c(=O)c2C3c2cc(OC)c(OC)c(OC)c2)cc(OC)c1OC` (centres undefined), the GI50 is 7.36 µM and the TGI is 22.6 µM.

Consider `Cc1nc(SCC(N)=O)c2sc(=S)n(-c3ccccc3)c2n1`, for which the TGI was more than 10 µM.

For the compound `O=C(CC(C(=O)c1cccs1)c1ccc2c(c1)OCO2)c1ccc(Br)cc1` (centres undefined), the TGI was more than 100 µM.

In the case of `Cc1cc(N(CCNc2ccnc3cc(Cl)ccc23)Cc2ccc3c(c2)OCO3)nc(N2CCN(C)CC2)n1`, the GI50 is 1.44 µM and the TGI amounted to 3.04 µM.

The next assay deals with SK-MEL-28 melanoma. As to the kind of experiment: NCI anticancer screen, dose series, 48 h.
With `COc1cc(-c2csc(NC(=O)c3cc(C(F)(F)F)cc(C(F)(F)F)c3)n2)cc(OC)c1OC`, the GI50 is 2.77 µM and the TGI was more than 100 µM.

Take `Cc1ccc(C(=O)Cc2nc3c([nH]c2=O)c(C)nn3-c2ccccc2)c(C)c1`: the TGI is more than 10 µM.

`Clc1ccccc1NN(Cc1ccccn1)c1ccccc1Cl` gave a TGI of 43.4 µM.

Compound `CCCCN1C(=O)CC2[C@@H]3CCc4cc(OC)ccc4C3CC[C@]2(C)C1=O` (some centres undefined) displayed a TGI of more than 10 µM.

As for `COc1cc(/C=C2\CN(C)CC3=C2Nc2nc(SC)[nH]c(=O)c2C3c2cc(OC)c(OC)c(OC)c2)cc(OC)c1OC` (centres undefined), the GI50 is 2.1 µM and the TGI was determined as 4.29 µM.

Regarding `Cc1nc(SCC(N)=O)c2sc(=S)n(-c3ccccc3)c2n1`, the TGI is more than 10 µM.

Turning to `O=C(CC(C(=O)c1cccs1)c1ccc2c(c1)OCO2)c1ccc(Br)cc1` (centres undefined), the TGI was more than 100 µM.

Turning to `Cc1cc(N(CCNc2ccnc3cc(Cl)ccc23)Cc2ccc3c(c2)OCO3)nc(N2CCN(C)CC2)n1`, the GI50 was 1.89 µM and the TGI came out at 3.53 µM.

The record behind these values is PubChem BioAssay (NCI).
